Test results: publication PMC8536644, “Enigmatic mechanism of the N-vinylpyrrolidone hepatocarcinogenicity in the rat” (Archives of Toxicology, 2021)
“And” between values parts separate entries of the source, which are not always exact repeats. Identical values can stand only once.

Columns and labels:
[1] = tested on: rat liver cells; assay: Comet assay in presence of FPG, liver; conditions: in presence of FPG, 200 mg/kg
Method: (§1) Animals were anesthetized by 3.5% isoflurane (approximately 3 min, evaporator Dräger Vapor 19.3) and then killed by cervical dislocation. The liver was removed and its left lateral lobe used for the Comet assay. The remainder of the liver was washed in saline and then in two aliquots shock frozen in liquid nitrogen and stored at − 80 °C for later examinations. Subsequently the lung was removed from the dead animal. Its left lobe was used for the Comet assay and the remainder treated as described above for the liver. Thereafter the femora were removed for the preparation of the bone marrow.
(§2) The Comet assay was performed under alkaline conditions according to the principles described by Singh et al. ([1988]) and Tice et al. ([2000]).
(§3) Liver and lung cells were obtained essentially as described by Hartmann et al. ([2004]) and by the Japanese Center for the Validation of Alternative Methods (JaCVAM [2009]). Single cells were obtained within 1 h after killing of the animals in order to minimize DNA damage during the preparation.
(§4) The organ parts (see above) were washed in mincing buffer (50 mM EDTA in HBSS [without Ca^2+ and Mg^2+] pH 7.5: DMSO 9:1 (v/v), the latter added shortly before use, stored at 4 °C), cut into 1 to 2-mm pieces in ice-cold mincing buffer and transferred to a cell sieve with 70-µm pores. The viability of the cell suspension was evaluated by the Trypan Blue Assay (Strober [2001]).
(§5) 100 µL of the obtained cell suspension was mixed at 37 °C with 900 µL Low Melting Agarose (LMA) (0.7% agarose in phosphate-buffered saline [PBS] [Biochrom, Berlin, Germany] without Ca^2+ and Mg^2+). 100 µL of this mixture was transferred to a slide, which had been coated with Normal Melting Agarose (NMA) (0.6% agarose in PBS without Ca^2+ and Mg^2+). The slides were protected with a cover slip and the agarose was hardened at approximately 4 °C. The cover slips were then removed and the slides put over night at 4 °C into lysis buffer (2.5 M NaCl, 125 mM NaOH, 127 mM EDTA, 10 mM Tris/NaOH, pH 10; 1% Triton X-100 and 10% DMSO (v/v), the latter two added before use) in order to lyse the cell membrane, nuclear membrane and remove the histone.
(§6) The then following procedures were performed in a shaded room to minimize UV-mediated DNA damage during the procedures.
Those slides which were destined to be treated with the DNA base excision repair enzyme FPG (Sigma Aldrich, Steinheim, Germany) were washed (3 times for 5 min) with FPG buffer (0.04 M HEPES, 0.5 mM EDTA, 0.1 M KCl, pH 8; add shortly before use bovine serum albumin [BSA] to a final concentration of 0.02%). Subsequently 50 µL FPG-enzyme-buffer (prepared shortly prior to use by 30-fold dilution of the following suspension in FPG buffer: 7 µL FPG-enzyme (14 U) and 70 µL glycerol in 623 µL FPG-Puffer, stored at − 80 °C) was pipetted on the slide which was covered with a cover slide and incubated for 30 min at 37 °C while being placed on a humid filter paper. After hardening of the agarose cover slips were removed.
(§7) Remaining lysis buffer or FPG buffer was removed by immersing/washing the slides in PBS (without Ca^2+ and Mg^2+).

[2] = Trypan Blue viability of the single cell suspension, liver; type: in vivo, rat; conditions: Wistar, rat, in vivo, po, 200 mg/kg
[3] = tested on: rat liver cells; assay: Comet assay, conventional (no FPG), liver; conditions: for Increase of the TI vs vehicle control: p ≤ 0.01; for Hedgehogs/100 cells (mean ± SD) / TI (%) (mean ± SD) / TI (%), mean of medians from 2 slides: liver, 200 mg/kg bw oral, once; for TI (%), mean of medians from 2 slides: individual animals
Method: as §1, §2, §3, §4, §5, §6, §7
The slides were then placed into the electrophoresis chamber, which was cooled and protected from light. Slides were covered with electrophoresis buffer (0.3 M NaOH, 1 mM EDTA, pH > 13) carefully avoiding air bubbles. The DNA was allowed to unwind (20 min). Thereafter the electrophoresis was started (25 V, 300 mA, […], 30 min). The slides were then washed (2 times 5 min) in neutralization buffer (0.4 M Tris/HCl, pH 7.5), dehydrated and fixed in 100% ethanol (1 min), dried at room temperature overnight and stored at room temperature protected from dust.
Quantitative evaluation of the Comet assays was performed by fluorescence microscopy after DNA staining with ethidium bromide.

CCOS(C)(=O)=O [EMS, ethyl methanesulfonate, reference compound]
Comets seen in presence of FPG [1]: only hedgehogs were seen
TI in presence of FPG (image analysis) [1]: marked increase
viability at 24 h ([2]; female, Individual viability (%)): 99%
viability at 24 h ([2]; female, Viability (%) (mean ± SD)): 96 ± 2%
viability at 24 h ([2]; male, Individual viability (%)): 91%
viability at 24 h ([2]; male, Viability (%) (mean ± SD)): 95 ± 3%
Tail intensity, liver, positive controls of the present study ([3]; 200 mg/kg body weight): 17–19%
Increase of the TI vs vehicle control ([3]; liver cells, female, no FPG, 200 mg/kg): 28 fold
Increase of the TI vs vehicle control ([3]; liver cells, male, no FPG, 200 mg/kg): 27 fold
Hedgehogs per 100 cells, averaged for both genders ([3]; liver cells, no FPG, 200 mg/kg): 7.5 per 100 cells
Hedgehogs/100 cells (mean ± SD) ([3]; female, no FPG): 7 ± 4 /100 cells
TI (%) (mean ± SD) ([3]; female, no FPG): 16.3 ± 4.49%
TI (%), mean of medians from 2 slides ([3]; female, no FPG, 200 mg/kg): 9.1% and 13.6% and 17.5% and 22.4% and 17.8% and 17.3%
Hedgehogs/100 cells (mean ± SD) ([3]; male, no FPG): 8 ± 2 /100 cells
TI (%) (mean ± SD) ([3]; male, no FPG): 18.6 ± 5.97%
TI (%), mean of medians from 2 slides ([3]; male, no FPG, 200 mg/kg): 18.9% and 17.5% and 29.0% and 10.6% and 19.3% and 16.4%
